Results on 32 compounds are retold here after patent publication US8143263B2, “Therapeutic agents” (Astrazeneca AB, priority 2008, dated 2012).

The target in the assay is T1, recombinant human pancreatic GLK (Homo sapiens, UniProt P35557).
T1 sequence (P35557 1-465): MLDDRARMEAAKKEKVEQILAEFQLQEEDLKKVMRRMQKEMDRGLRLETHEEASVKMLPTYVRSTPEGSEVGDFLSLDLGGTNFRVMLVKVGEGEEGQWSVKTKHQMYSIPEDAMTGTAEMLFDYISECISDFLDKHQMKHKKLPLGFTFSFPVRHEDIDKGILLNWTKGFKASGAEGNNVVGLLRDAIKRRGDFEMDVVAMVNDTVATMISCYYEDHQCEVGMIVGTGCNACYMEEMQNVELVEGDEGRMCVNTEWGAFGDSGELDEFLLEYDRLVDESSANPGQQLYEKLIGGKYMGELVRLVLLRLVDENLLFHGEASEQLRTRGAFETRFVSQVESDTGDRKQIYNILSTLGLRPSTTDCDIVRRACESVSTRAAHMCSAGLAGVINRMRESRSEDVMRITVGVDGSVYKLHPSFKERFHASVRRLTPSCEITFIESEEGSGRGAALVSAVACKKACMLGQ
The experiment in a line: biochemical.
For the compound `COCCC(Oc1ncnc2c1cnn2-c1ccccc1OC)C(=O)Nc1ccc(C)cn1` (centres unmarked) [Example 22, 4-Methoxy-2-{[1-(2-methoxyphenyl)-1H-pyrazolo[3,4-d]pyrimidin-4-yl]oxy}-N-(5-methylpyridin-2-yl)butanamide], the EC50 worked out at 190 nM.

As for `COCC[C@@H](Oc1ncnc2c1cnn2-c1ccccc1OC)C(=O)Nc1ccc(C)cn1` [Example 23, (R)-4-Methoxy-2-{[1-(2-methoxyphenyl)-1H-pyrazolo[3,4-d]pyrimidin-4-yl]oxy}-N-(5-methylpyridin-2-yl)butanamide], the EC50 is no less than 100000 nM.

`COCC[C@H](Oc1ncnc2c1cnn2-c1ccccc1OC)C(=O)Nc1ccc(C)cn1` [Example 24, (S)-4-methoxy-2-{[1-(2-methoxyphenyl)-1H-pyrazolo[3,4-d]pyrimidin-4-yl]oxy}-N-(5-methylpyridin-2-yl)butanamide]: the EC50 was 120 nM. Take `COCCC(Oc1ncnc2c1cnn2-c1ccc(F)cc1F)C(=O)Nc1ccc(C)cn1` (centres unmarked) [Example 25, 2-{[1-(2,4-Difluorophenyl)-1H-pyrazolo[3,4-d]pyrimidin-4-yl]oxy}-4-methoxy-N-(5-methylpyridin-2-yl)butanamide]: the concentration for a half-maximal effect (EC50) came out at 1200 nM. Consider `COCC[C@@H](Oc1ncnc2c1cnn2-c1ccc(F)cc1F)C(=O)Nc1ccc(C)cn1` [Example 26, (R)-2-{[1-(2,4-Difluorophenyl)-1H-pyrazolo[3,4-d]pyrimidin-4-yl]oxy}-4-methoxy-N-(5-methylpyridin-2-yl)butanamide], for which the EC50 turned out to be 35000 nM. Regarding `COCC[C@H](Oc1ncnc2c1cnn2-c1ccc(F)cc1F)C(=O)Nc1ccc(C)cn1` [Example 27, (S)-2-{[1-(2,4-difluorophenyl)-1H-pyrazolo[3,4-d]pyrimidin-4-yl]oxy}-4-methoxy-N-(5-methylpyridin-2-yl)butanamide], the EC50 is 1000 nM.

For `COCCC(Oc1ncnc2c1cnn2-c1cccc(C)c1)C(=O)Nc1ccc(C)cn1` (centres unmarked) [Example 31, 4-Methoxy-2-{[1-(3-methylphenyl)-1H-pyrazolo[3,4-d]pyrimidin-4-yl]oxy}-N-(5-methylpyridin-2-yl)butanamide], the 50% effective concentration (EC50) was found to be 350 nM. On to `COCC[C@@H](Oc1ncnc2c1cnn2-c1cccc(C)c1)C(=O)Nc1ccc(C)cn1` [Example 32, (R)-4-Methoxy-2-{[1-(3-methylphenyl)-1H-pyrazolo[3,4-d]pyrimidin-4-yl]oxy}-N-(5-methylpyridin-2-yl)butanamide], for which the EC50 is no less than 100000 nM.

As for `COCC[C@H](Oc1ncnc2c1cnn2-c1cccc(C)c1)C(=O)Nc1ccc(C)cn1` [Example 33, (S)-4-methoxy-2-{[1-(3-methylphenyl)-1H-pyrazolo[3,4-d]pyrimidin-4-yl]oxy}-N-(5-methylpyridin-2-yl)butanamide], the 50% effective concentration (EC50) is greater than 1700 nM.

On to `COCCC(Oc1ncnc2c1cnn2-c1ccccn1)C(=O)Nc1ccc(C)cn1` (centres unmarked) [Example 34, 4-Methoxy-N-(5-methylpyridin-2-yl)-2-[(1-pyridin-2-yl-1H-pyrazolo[3,4-d]pyrimidin-4-yl)oxy]butanamide], for which the EC50 worked out at 1900 nM. For the compound `COCCC(Oc1ncnc2c1cnn2-c1ccccc1OC)C(=O)Nc1nc(C)cs1` (centres unmarked) [Example 35, 4-Methoxy-2-{[1-(2-methoxyphenyl)-1H-pyrazolo[3,4-d]pyrimidin-4-yl]oxy}-N-(4-methyl-1,3-thiazol-2-yl)butanamide], the EC50 amounted to 2100 nM. Consider `COCC[C@@H](Oc1ncnc2c1cnn2-c1ccccc1OC)C(=O)Nc1nc(C)cs1` [Example 36, (R)-4-Methoxy-2-{[1-(2-methoxyphenyl)-1H-pyrazolo[3,4-d]pyrimidin-4-yl]oxy}-N-(4-methyl-1,3-thiazol-2-yl)butanamide], for which the EC50 was no less than 100000 nM. Take `COCC[C@H](Oc1ncnc2c1cnn2-c1ccccc1OC)C(=O)Nc1nc(C)cs1` [Example 37, (S)-4-methoxy-2-{[1-(2-methoxyphenyl)-1H-pyrazolo[3,4-d]pyrimidin-4-yl]oxy}-N-(4-methyl-1,3-thiazol-2-yl)butanamide]: the EC50 was found to be 1300 nM. For `CCCCC(Oc1ncnc2c1cnn2-c1ccccc1Cl)C(=O)Nc1ccc(C)cn1` (centres unmarked) [Example 38, 2-{[1-(2-chlorophenyl)-1H-pyrazolo[3,4-d]pyrimidin-4-yl]oxy}-N-(5-methylpyridin-2-yl)hexanamide] the value was 20 nM; for `CCCCC(Oc1ncnc2c1cnn2C)C(=O)Nc1ccc(C)cn1` (centres unmarked) [Example 39, 2-[(1-methyl-1H-pyrazolo[3,4-d]pyrimidin-4-yl)oxy]-N-(5-methylpyridin-2-yl)hexanamide], 11000 nM; for `CCCCC(Oc1ncnc2c1cnn2-c1ccccc1Cl)C(=O)Nc1cnc(C)cn1` (centres unmarked) [Example 40, 2-{[1-(2-chlorophenyl)-1H-pyrazolo[3,4-d]pyrimidin-4-yl]oxy}-N-(5-methylpyrazin-2-yl)hexanamide], 140 nM. For `CCC(Oc1ncnc2c1cnn2-c1ccccc1OC)C(=O)Nc1ccc(C)cn1` (centres unmarked) [Example 42, 2-{[1-(2-Methoxyphenyl)-1H-pyrazolo[3,4-d]pyrimidin-4-yl]oxy}-N-(5-methylpyridin-2-yl)butanamide] the value was 410 nM. As to `CC[C@@H](Oc1ncnc2c1cnn2-c1ccccc1OC)C(=O)Nc1ccc(C)cn1` [Example 43, (2R)-2-{[1-(2-Methoxyphenyl)-1H-pyrazolo[3,4-d]pyrimidin-4-yl]oxy}-N-(5-methylpyridin-2-yl)butanamide], the EC50 amounted to 4200 nM. For `COc1ccccc1-n1ncc2c(OC(C)C(=O)Nc3ccc(C)cn3)ncnc21` (centres unmarked) [Example 44, 2-{[1-(2-Methoxyphenyl)-1H-pyrazolo[3,4-d]pyrimidin-4-yl]oxy}-N-(5-methylpyridin-2-yl)propanamide] the value was 3400 nM. With `Cc1ccc(NC(=O)[C@H](CCN(C)C)Oc2ncnc3c2cnn3-c2ccccc2Cl)nc1` [Example 47, (2S)-2-{[1-(2-chlorophenyl)-1H-pyrazolo[3,4-d]pyrimidin-4-yl]oxy}-4-(dimethylamino)-N-(5-methylpyridin-2-yl)butanamide] the figure was 1000 nM; with `CC(=O)NCC(Oc1ncnc2c1cnn2-c1ccccc1Cl)C(=O)Nc1nc(C)cs1` (centres unmarked) [Example 48, 3-Acetamido-2-{[1-(2-chlorophenyl)-1h-pyrazolo[3,4-d]pyrimidin-4-yl]oxy}-n-(4-methyl-1,3-thiazol-2-yl)propanamide], 11000 nM. Regarding `Cc1ccc(NC(=O)C(CCC(=O)O)Oc2ncnc3c2cnn3-c2ccccc2Cl)nc1` (centres unmarked) [Example 49, 4-{[1-(2-chlorophenyl)-1H-pyrazolo[3,4-d]pyrimidin-4-yl]oxy}-5-[(5-methylpyridin-2-yl)amino]-5-oxopentanoic acid], the EC50 came to 34000 nM. As for `Cc1ccc(NC(=O)C(CCC(N)=O)Oc2ncnc3c2cnn3-c2ccccc2Cl)nc1` (centres unmarked) [Example 50, 2-{[1-(2-chlorophenyl)-1H-pyrazolo[3,4-d]pyrimidin-4-yl]oxy}-N1-(5-methylpyridin-2-yl)pentanediamide], the EC50 worked out at 590 nM. On to `CNC(=O)CCC(Oc1ncnc2c1cnn2-c1ccccc1Cl)C(=O)Nc1ccc(C)cn1` (centres unmarked) [Example 51, 2-{[1-(2-chlorophenyl)-1H-pyrazolo[3,4-d]pyrimidin-4-yl]oxy}-N5-methyl-N1-(5-methylpyridin-2-yl)pentanediamide], for which the EC50 amounted to 4400 nM. With `COCCOCCC(Sc1ncnc2c1cnn2-c1ccccc1Cl)C(=O)Nc1nc(C)cs1` (centres unmarked) [Example 52, 2-{[1-(2-chlorophenyl)-1H-pyrazolo[3,4-d]pyrimidin-4-yl]thio}-4-(2-methoxyethoxy)-N-(4-methyl-1,3-thiazol-2-yl)butanamide] the figure was 2900 nM; with `COCCC(Sc1ncnc2c1cnn2-c1ccccc1Cl)C(=O)Nc1nc(C)cs1` (centres unmarked) [Example 53, 2-{[1-(2-chlorophenyl)-1H-pyrazolo[3,4-d]pyrimidin-4-yl]thio}-4-methoxy-N-(4-methyl-1,3-thiazol-2-yl)butanamide], 780 nM; with `CCC(C)C(Sc1ncnc2c1cnn2-c1ccccc1Cl)C(=O)Nc1nc(C)cs1` (centres unmarked) [Example 54, 2-{[1-(2-chlorophenyl)-1H-pyrazolo[3,4-d]pyrimidin-4-yl]thio}-3-methyl-N-(4-methyl-1,3-thiazol-2-yl)pentanamide], 4000 nM.

For the compound `CCC(C)C(Sc1ncnc2c1cnn2-c1ccccc1Cl)C(=O)Nc1ccon1` (centres unmarked) [Example 55, 2-{[1-(2-chlorophenyl)-1H-pyrazolo[3,4-d]pyrimidin-4-yl]thio}-N-isoxazol-3-yl-3-methylpentanamide], the EC50 is greater than 20000 nM.

`CCC(C)C(Sc1ncnc2c1cnn2-c1ccccc1Cl)C(=O)Nc1ccc(C)cn1` (centres unmarked) [Example 56, 2-{[1-(2-chlorophenyl)-1H-pyrazolo[3,4-d]pyrimidin-4-yl]thio}-3-methyl-N-(5-methylpyridin-2-yl)pentanamide]: the EC50 came out at 3100 nM. As to `COCCOCCC(Sc1ncnc2c1cnn2C(C)C)C(=O)Nc1nc(C)cs1` (centres unmarked) [Example 57, 2-[(1-Isopropyl-1H-pyrazolo[3,4-d]pyrimidin-4-yl)thio]-4-(2-methoxyethoxy)-N-(4-methyl-1,3-thiazol-2-yl)butanamide], the EC50 was determined as 30000 nM. As to `COCCOCCC(Sc1ncnc2c1cnn2C(C)C)C(=O)Nc1ccc(C)cn1` (centres unmarked) [Example 58, 2-[(1-Isopropyl-1H-pyrazolo[3,4-d]pyrimidin-4-yl)thio]-4-(2-methoxyethoxy)-N-(5-methylpyridin-2-yl)butanamide], the EC50 amounted to 1950 nM. For the compound `CCCCC(Sc1ncnc2c1cnn2-c1ccccc1Cl)C(=O)Nc1nc(C)cs1` (centres unmarked) [Example 59, 2-{[1-(2-chlorophenyl)-1h-pyrazolo[3,4-]pyrimidin-4-yl]thio}-n-(4-methyl-1,3-thiazol-2-yl)hexanamide], the EC50 was determined as 650 nM.
